Experiment: Solubility of ketoconazole in solvent media at room temperature
Type: physicochemical
Conditions: for Solubility: room temperature (21° C.)
Protocol: The solubility of ketoconazole in each of isopropyl alcohol, water and polyethoxylated glyceryl cocoate were established at room temperature (21° C.).
The solubility of ketoconazole in a composition of the present invention, prepared as in Example 1, containing 55% isopropyl alcohol, 35% water and 10% polyethoxylated glyceryl cocoate was also established at room temperature (21° C.).

CC(=O)N1CCN(c2ccc(OCC3COC(Cn4ccnc4)(c4ccc(Cl)cc4Cl)O3)cc2)CC1 (centres unmarked) [ketoconazole, 1-acetyl-4-[4-[2-(2,4-dichlorophenyl)-2-imidazol-1-ylmethyl-1,3-dioxolan-4-ylmethoxy]phenyl]piperazine]
Solubility (in composition of 55% isopropyl alcohol, 35% water and 10% polyethoxylated glyceryl cocoate): 2.8 wt %
Solubility (in isopropyl alcohol): 0.4722 wt %
Solubility (in polyethoxylated glyceryl cocoate): 0.8682 wt %
Solubility (in water): 0.0233 wt %
Solubility of ketoconazole in three-component solvent system (ternary solvent system (water, alcohol, non-ionic surface active agent)): up to 3 wt %
